This is an account of results in patent US20240252456A1, “ORAL COMPOSITION, SKIN COSMETIC AND HAIR COSMETIC” (MARUZEN PHARMACEUTICALS CO., LTD., priority 2021, published 2024).

In assay [1] the test system is B16 melanoma cells. Kind of assay: Melanin production suppressive action test on B16 melanoma cells. As to conditions: 4 days, corrected by cell survival rate. It counts as cell-based. Here is the method: B16 melanoma cells were cultured using Dulbecco's modified Eagle's medium (DMEM) containing 10% FBS, and then the cells were collected by a trypsin treatment. The collected cells were diluted with DMEM containing 10% FBS and 1 mmol/L theophylline to a cell density of 24.0×10^4 cells/mL, then seeded with 300 μL per well in a 48-well plate, and cultured for 6 hours.
After the culturing was completed, 300 μL of each of test samples (Samples 1 to 3, see Table 5 below for final concentrations) dissolved in DMEM containing 10% FBS and 1 mmol/L theophylline was added to each well, and culturing was performed for 4 days. As a control, culturing was performed in the same manner using DMEM containing 10% FBS and 1 mmol/L theophylline to which no sample was added. After the culturing was completed, the medium was removed, 200 μL of 2 mol/L NaOH solution was added, the cells were disrupted using an ultrasonic disrupter, and the absorbance at a wavelength of 475 nm was measured. From the measured absorbance value, the amount of melanin was calculated based on a calibration curve created using synthetic melanin (available from SIGMA).
In addition, in order to measure the cell survival rate, after culturing in the same manner as above, the medium was removed, the cells were washed with 400 μL of PBS(−) buffer solution, 200 μL of Neutral Red dissolved at a final concentration of 0.05 mg/mL in DMEM containing 10% FBS was added to each well, and culturing was performed for 2.5 hours. After culturing, the neutral red solution was removed, and 200 μL of ethanol/acetic acid solution (ethanol:acetic acid:water=50:1:49) was added to each well to extract the dye. After extraction, the absorbance at a wavelength of 540 nm was measured. From the obtained results, the melanin production suppression rate (%) corrected by the cell survival rate was calculated using the following equation.
Terms in the equation represent the following respective ones. • A: Melanin amount without sample addition • B: Melanin amount with test sample addition • C: Absorbance at wavelength 540 nm without sample addition • D: Absorbance at wavelength 540 nm with test sample addition

The subject of assay [2] is TGM1 mRNA. In words: Transglutaminase-1 (TGM1) mRNA expression promotive action test. It counts as cell-based, human. As to conditions: NHEK, 24 hours, A/B×100, corrected with GAPDH. On the procedure: (§1) Normal human neonatal epidermal keratinocytes (NHEK) were precultured using normal human epidermal keratinocyte growth medium (KGM), and the cells were collected by a trypsin treatment. The collected cells were diluted with KGM to a cell density of 15×10^4 cells/mL, then seeded with 2 mL portions in a 6-well plate (30×10^4 cells/well), and cultured overnight under conditions of 37° C. and 5% CO2. After culturing, the medium was replaced with normal human epidermal keratinocyte basal medium (KBM, the above KGM without addition of growth additives (hEGF, BPE, insulin, antibacterial agents, hydrocortisone)), and culturing was further performed for 24 hours.
After culturing for 24 hours, the medium was removed, and 2 mL of each of test samples (Samples 1 to 3, see Table 15 below for final concentrations) dissolved in KBM was added to each well, and culturing was performed under conditions of 37° C. and 5% CO2 for 24 hours. As a control, culturing was performed in the same manner using KBM to which no sample was added. After culturing, the medium was removed, total RNA was extracted using ISOGEN II (available from NIPPON GENE CO., LTD.), each RNA amount was measured using a spectrophotometer, and the total RNA was prepared so as to be 150 ng/μL.
For TGM1 and GAPDH as an internal standard, the expression levels of mRNA were measured using the above total RNA as a template. Detection was performed through a two-step real-time RT-PCR reaction using a real-time PCR device, Thermal Cycler Dice Real Time System III (available from Takara Bio Inc.), with PrimeScript™ RT Master Mix (Perfect Real Time) (available from Takara Bio Inc.) and TB Green® Fast qPCR Mix (available from Takara Bio Inc.). The primers used were those having the sequences 5′-[…]-3′ and 5′-[…]-3′.
The expression level of TGM1 mRNA was obtained as a value corrected with a value of GAPDH based on total RNA preparations prepared from cells cultured “with test sample addition” and “without sample addition.” From the obtained values, the TGM1 mRNA expression promotion rate (%) was calculated using the following equation.
TGM1 mRNA expression promotion rate (%)=A/B×100
(§2) Terms in the equation represent the following respective ones. • A: Corrected value with test sample addition • B: Corrected value without sample addition

The subject of assay [3] is FLG mRNA. In words: Filaggrin (FLG) mRNA expression promotive action test. It counts as cell-based, human. Conditions: NHEK, 24 hours, corrected with GAPDH. On the procedure: as §1
After culturing for 24 hours, the medium was removed, and 2 mL of each of test samples (Samples 1 to 3, see Table 18 below for final concentrations) dissolved in KBM was added to each well, and culturing was performed under conditions of 37° C. and 5% CO2 for 24 hours. As a control, culturing was performed in the same manner using KBM to which no sample was added. After culturing, the medium was removed, total RNA was extracted using ISOGEN II (available from NIPPON GENE CO., LTD.), each RNA amount was measured using a spectrophotometer, and the total RNA was prepared so as to be 150 ng/μL.
For FLG and GAPDH as an internal standard, the expression levels of mRNA were measured using the above total RNA as a template. Detection was performed through a two-step real-time RT-PCR reaction using a real-time PCR device, Thermal Cycler Dice Real Time System III (available from Takara Bio Inc.), with PrimeScript™ RT Master Mix (Perfect Real Time) (available from Takara Bio Inc.) and TB Green® Fast qPCR Mix (available from Takara Bio Inc.). Primers available from Takara Bio Inc. were used. The expression level of FLG mRNA was obtained as a value corrected with a value of GAPDH based on total RNA preparations prepared from cells cultured “with test sample addition” and “without sample addition.” From the obtained values, the FLG mRNA expression promotion rate (%) was calculated using the following equation.
as §2

Each structure is given as a SMILES string.

For the compound `O=C(O)CCc1ccccc1` [Sample 3, 3-phenylpropionic acid], the “Melanin production suppression rate” value in assay [1] (250 μmol/L) amounted to 46.2%; in assay [1] (1000 μmol/L), 57.0%. Moreover, the entries for the “TGM1 mRNA expression promotion rate” value in assay [2] (25 μmol/L) and in assay [2] (100 μmol/L) were 218.5% and 174.9%, respectively. In addition, the “FLG mRNA expression promotion rate” value in assay [3] (25 μmol/L) was 196.6%.

As for `O=C(O)CCc1ccc(O)cc1` [Sample 2, 3-(4-Hydroxyphenyl)propionic acid], the entries for the “Melanin production suppression rate” value in assay [1] (62.5 μmol/L), in assay [1] (250 μmol/L) and in assay [1] (1000 μmol/L) were 8.5%, 40.2% and 69.5%, respectively. Besides, the “TGM1 mRNA expression promotion rate” value in assay [2] (100 μmol/L) was 160.8%. The “FLG mRNA expression promotion rate” value is given as 168.2% in assay [3] (25 μmol/L) and 129.8% in assay [3] (100 μmol/L).

With `O=C(O)CCc1ccc(O)c(O)c1` [Sample 1, 3,4-Dihydroxyhydrocinnamic acid], the “Melanin production suppression rate” value in assay [1] (250 μmol/L) came to 63.8%. Further, the “TGM1 mRNA expression promotion rate” value in assay [2] (6.25 μmol/L) came to 214.6%; in assay [2] (25 μmol/L), 528.6%; in assay [2] (100 μmol/L), 1617.1%. For the same compound, the “FLG mRNA expression promotion rate” value in assay [3] (25 μmol/L) amounted to 197.2%; in assay [3] (100 μmol/L), 342.0%.
